This passage reports EC50 results from patent US9006241B2, “Pyrimidine derivatives” (Noviga Research AB, priority 2011, dated 2015).

The test system of the assay is CCRF-CEM cancer cells - leukemia. Briefly: Fluorometric Microculture Cytotoxicity Assay (FMCA), CCRF-CEM. In kind it is cell-based. The following applies: Homo sapiens, 72 h incubation. From the text: The Fluorometric Microculture Cytotoxicity Assay, FMCA (Larsson, R., et al.; Anticancer Res, 1989, 9, 1111-1119), is a three day non-clonogenic microplate-based cell viability assay used for measurement of the cytotoxic and/or cytostatic effect of compounds in vitro (Lindhagen, E. et al.; Nat. Protoc., 2008, 3, 1364-1369). FMCA represents a valuable method to measure cytotoxicity in a number of cell types, both cell lines and primary cells from patients (Larsson, R., et al.; Int. J. Cancer, 1992, 50, 177-185; Fridborg, H., et al.; Eur. J. Cancer, 1999. 35, 424-432; Dhar, S., et al.; Br. J. Cancer, 1996, 74, 888-896).
FMCA is based on the principle that fluorescein diacetate (FDA) is converted to the fluorescent probe fluorescein by esterases in the plasma membranes of living cells. For experiments, 96 or 384-well microplates are prepared with compounds and stored at −70° C. until use. Cells are then seeded into the drug-prepared plates and placed in an incubator for 72 h. On the last day of incubation, the plates are washed and a buffer containing FDA is added and incubated with the cells for 45 minutes. Finally the fluorescence per well is measured in a fluorometer and a Survival Index % (SI) for each compound-treated well is calculated with the equation: Compound-treated cells minus blank divided by control cells minus blank. A high SI-value indicates a large percentage of living cells and vice versa.
In subsequent experiments, compounds were tested, along with a number of approved cancer drugs (dasatinib, pazopanib, sorafenib, and sunitinib) as described above. Initially, the acute lymphoblastic leukemia cell line CCRF-CEM was used throughout. In the assay plates, medium was added to six empty wells (blank wells) and wells were filled with PBS and cell suspension and served as control wells. SI-values were then calculated for each compound-treated well as described above. All experiments were conducted twice and a new batch of plates was prepared for each experiment.
For dose-response experiments, 384-well plates were prepared as follows:
Compounds of the invention as well comparative kinase inhibitors sorafenib sunitinib, dasatinib, pazopanib and a reference compound disclosed in WO 2009/071535 (compound #107) were diluted with PBS to a concentration ten-times higher than the desired starting concentration. Then, a Biomek 2000 liquid handling system was employed to serially dilute the compounds in a deep-well 384-well plate. From this plate, assay plates containing 5 μl compound per well were prepared with the Biomek 2000. Certain compounds precipitated when diluted with PBS, and these compounds were therefore prepared in a 96-well plate manually as described above using culture medium RPMI 1640 instead of PBS.
The compounds were also tested at five concentrations, with five times serial dilution on the following cell types: CCRF-CEM, hTERT-RPE1 (normal retinal epithelial cells), hRPTEpiC (normal renal cells), and peripheral blood mononuclear cells (PBMC). Each experiment was performed three times, except for PBMC and hRPTEpiC, which were performed twice. SI-values were calculated, graphs were plotted using GraphPadPrism 5.0 (GraphPad Software Inc. La Jolla, Calif.) and IC50-values for each cell type and compound were determined from the curves.

Structures are written as SMILES.

`COc1ccc2[nH]cc(CCNc3nccc(Nc4ccc5c(c4)ncn5C)n3)c2c1` [Example 52, N^2-[2-(5-methoxy-1H-indol-3-yl)ethyl]-N^4-(1-methyl-1H-benzo[d]imidazol-5-yl)pyrimidine-2,4-diamine] had an EC50 of 0.43 µM.

`COc1ccc2[nH]cc(CCNc3ccnc(Nc4ccc5[nH]c(C)cc5c4)n3)c2c1` [Example 23, N^4-[2-(5-methoxy-1H-indol-3-yl)ethyl]-N^2-(2-methyl-1H-indol-5-yl)pyrimidine-2,4-diamine] gave an EC50 of 0.059 µM.

With `CCOc1ccc2[nH]cc(CCNc3nc(Nc4ccc5[nH]c(C)cc5c4)cc(C(N)=O)n3)c2c1` [Example 85, 2-[2-(5-ethoxy-1H-indol-3-yl)ethylamino]-6-[(2-methyl-1H-indol-5-yl)amino]pyrimidine-4-carboxamide], the EC50 was < 0.1 µM.

Compound `Cc1cc2cc(Nc3ccnc(NCCc4c[nH]c5ccc(OC(F)(F)F)cc45)n3)ccc2[nH]1` [Example 7, N^4-(2-methyl-1H-indol-5-yl)-N^2-{2-[5-(trifluoromethoxy)-1H-indol-3-yl]ethyl}pyrimidine-2,4-diamine] returned an EC50 of 0.14 µM.

Consider `COc1ccc2[nH]cc(CCNc3nccc(Nc4ccc5c(c4)nc(C)n5C)n3)c2c1` [Example 53, N^4-(1,2-dimethyl-1H-benzo[d]imidazol-5-yl)-N^2-[2-(5-methoxy-1H-indol-3-yl)ethyl]pyrimidine-2,4-diamine], for which the response was half-maximal at 0.033 µM (EC50).

With `COc1ccc2[nH]cc(CCNc3nc(Nc4ccc5[nH]c(C)cc5c4)cc(N4CCN(C)CC4)n3)c2c1` [Example 30, N^2-[2-(5-methoxy-1H-indol-3-yl)ethyl]-N^4-(2-methyl-1H-indol-5-yl)-6-(4-methylpiperazin-1-yl)pyrimidine-2,4-diamine], the EC50 was determined as 3 µM.

Compound `Cc1ccc(Nc2nccc(N(C)c3ccc4c(C)n(C)nc4c3)n2)cc1S(N)(=O)=O` [Ref. 4, pazopanib, reference compound] yielded an EC50 of 25.9 µM.

On to `COc1ccc2c(CCNc3nccc(Nc4ccc5[nH]c(C)cc5c4)n3)c[nH]c2c1` [Example 11, N^2-[2-(6-methoxy-1H-indol-3-yl)ethyl]-N^4-(2-methyl-1H-indol-5-yl)pyrimidine-2,4-diamine], for which the concentration for a half-maximal effect (EC50) was 0.15 µM.

On to `Cc1cc2cc(Nc3ccnc(NCCc4c[nH]c5ccc(OCCN6CCOCC6)cc45)n3)ccc2[nH]1` [Example 6, N^4-(2-methyl-1H-indol-5-yl)-N^2-{2-[5-(2-morpholinoethoxy)-1H-indol-3-yl]ethyl}pyrimidine-2,4-diamine], for which it took 2.9 µM to reach a half-maximal effect (EC50).

On to `COC(=O)c1cc2cc(Nc3ccnc(NCCc4c[nH]c5ccc(OC)cc45)n3)ccc2[nH]1` [Example 16, methyl 5-{2-[2-(5-methoxy-1H-indol-3-yl)ethylamino]pyrimidin-4-ylamino}-1H-indole-2-carboxylate], for which the EC50 came out at 0.94 µM.

`COc1ccc2[nH]cc(CCNc3nccc(N(C)c4ccc5[nH]c(C)cc5c4)n3)c2c1` [Example 61, N^2-[2-(5-methoxy-1H-indol-3-yl)ethyl]-N^4-methyl-N^4-(2-methyl-1H-indol-5-yl)pyrimidine-2,4-diamine] came in with an EC50 of 1 to 10 µM.

Regarding `COc1ccc2[nH]cc(CCNc3nc(Nc4ccc5c(c4)nc(C)n5C)cc(C(N)=O)n3)c2c1` [Example 86, 6-[(1,2-dimethylbenzimidazol-5-yl)amino]-2-[2-(5-methoxy-1H-indol-3-yl)ethylamino]pyrimidine-4-carboxamide], the EC50 is < 1 µM.

In turn, `Cc1cc2cc(Nc3nccc(NCCc4c[nH]c5ccccc45)n3)ccc2[nH]1` [Example 22, N^4-[2-(1H-indol-3-yl)ethyl]-N^2-(2-methyl-1H-indol-5-yl)pyrimidine-2,4-diamine] showed an EC50 of 3.4 µM.

The compound `Cc1cc2cc(Nc3ccnc(NCCc4c[nH]c5ccc(O)cc45)n3)ccc2[nH]1` [Example 8, 3-{2-[4-(2-methyl-1H-indol-5-ylamino)pyrimidin-2-ylamino]ethyl}-1H-indol-5-ol] registered an EC50 of 3.1 µM.

As for `COc1ccc2[nH]cc(CCNc3nc(Nc4cccc5c4ccn5C)cc(C(N)=O)n3)c2c1` [Example 87, 2-[2-(5-methoxy-1H-indol-3-yl)ethylamino]-6-[(1-methylindol-4-yl)amino]pyrimidine-4-carboxamide], the EC50 is < 0.1 µM.

For `COc1ccc2[nH]cc(CCNc3nccc(Nc4cccc5[nH]c(C)cc45)n3)c2c1` [Example 77, N^2-[2-(5-methoxy-1H-indol-3-yl)ethyl]-N^4-(2-methyl-1H-indol-4-yl)pyrimidine-2,4-diamine], the EC50 is < 0.1 µM.

Consider `COc1ccc2[nH]cc(CCN(C)c3nccc(Nc4ccc5[nH]c(CO)cc5c4)n3)c2c1` [Example 59, [5-(2-{[2-(5-methoxy-1H-indol-3-yl)ethyl][methyl]amino}pyrimidin-4-ylamino)-1H-indol-2-yl]methanol], for which the EC50 lay within 1 to 10 µM.

Regarding `COc1ccc2[nH]cc(CCNc3nc(Nc4cccc5c4ccn5C)cc(N4CCN(C)CC4)n3)c2c1` [Example 89, N^2-[2-(5-methoxy-1H-indol-3-yl)ethyl]-N^4-(1-methylindol-4-yl)-6-(4-methylpiperazin-1-yl)pyrimidine-2,4-diamine], the EC50 is < 1 µM.

Regarding `COc1ccc2[nH]cc(CCNc3ccnc(Nc4cccc5c4ccn5C)n3)c2c1` [Example 84, N^4-[2-(5-methoxy-1H-indol-3-yl)ethyl]-N^2-(1-methylindol-4-yl)pyrimidine-2,4-diamine], the EC50 is < 0.1 µM.

`COc1ccc2[nH]c(C)c(CCNc3nc(C)cc(Nc4ccc5[nH]c(C)cc5c4)n3)c2c1` [Example 56, N^2-[2-(5-methoxy-2-methyl-1H-indol-3-yl)ethyl]-6-methyl-N^4-(2-methyl-1H-indol-5-yl)pyrimidine-2,4-diamine] showed an EC50 of 0.13 µM.

With `COc1ccc2[nH]cc(CCNc3nccc(Nc4ccc5cc(C)[nH]c5c4)n3)c2c1` [Example 73, N^2-[2-(5-methoxy-1H-indol-3-yl)ethyl]-N^4-(2-methyl-1H-indol-6-yl)pyrimidine-2,4-diamine], the EC50 was < 0.1 µM.

For `Cc1nc(Nc2ncc(C(=O)Nc3c(C)cccc3Cl)s2)cc(N2CCN(CCO)CC2)n1` [Ref. 3, dasatinib, reference compound], the concentration for a half-maximal effect (EC50) worked out at 9.7 µM.

On to `Cn1ccc2c(Nc3ccnc(NCCc4c[nH]c5ccc(O)cc45)n3)cccc21` [Example 79, 3-[2-({4-[(1-methylindol-4-yl)amino]pyrimidin-2-yl}amino)ethyl]-1H-indol-5-ol], for which the EC50 is < 1 µM.

In turn, `CCOc1ccc2[nH]cc(CCNc3nc(C)cc(Nc4ccc5[nH]c(C)nc5c4)n3)c2c1` [Example 58, N^2-[2-(5-ethoxy-1H-indol-3-yl)ethyl]-6-methyl-N^4-(2-methyl-1H-benzo[d]imidazol-5-yl)pyrimidine-2,4-diamine] came in with an EC50 of 0.17 µM.

The compound `c1ccc2c(CCNc3ccnc(Nc4ccc5cc[nH]c5c4)n3)c[nH]c2c1` [Example 24, N^4-[2-(1H-indol-3-yl)ethyl]-N^2-(1H-indol-6-yl)pyrimidine-2,4-diamine] came in with an EC50 of 1 to 10 µM.

As for `Cc1cc2cc(Nc3ccnc(NCCc4c[nH]c5ccc(OC(C)C)cc45)n3)ccc2[nH]1` [Example 49, N^2-[2-(5-isopropoxy-1H-indol-3-yl)ethyl]-N^4-(2-methyl-1H-indol-5-yl)pyrimidine-2,4-diamine], the EC50 worked out at 0.1 µM.

For the compound `COc1ccc2[nH]cc(CCNc3nccc(Nc4ccc5[nH]ccc5c4)n3)c2c1` [Example 2, N^4-(1H-indol-5-yl)-N^2-[2-(5-methoxy-1H-indol-3-yl)ethyl]pyrimidine-2,4-diamine], the EC50 stood at 0.14 µM.

With `Cc1cc2cc(Nc3ccnc(NCCc4c[nH]c5ccc(F)cc45)n3)ccc2[nH]1` [Example 10, N^2-[2-(5-fluoro-1H-indol-3-yl)ethyl]-N^4-(2-methyl-1H-indol-5-yl)pyrimidine-2,4-diamine], a half-maximal response (EC50) required 0.28 µM.

For `COc1ccc2[nH]cc(CCNc3nccc(Nc4cccc5c4cc(C)n5C)n3)c2c1` [Example 81, N^4-(1,2-dimethylindol-4-yl)-N^2-[2-(5-methoxy-1H-indol-3-yl)ethyl]pyrimidine-2,4-diamine], the EC50 was < 0.1 µM.
